Laboratory results published in US11926826B2, “Twist signaling inhibitor compositions and methods of using the same” (City of Hope, priority 2016, dated 2024).

Legend:
A2780R cells = assay: Sulphorhodamine B cell survival assay with cisplatin, A2780R; type: cell-based; conditions: without YTZ3-15-si494 treatment
Protocol: Sulphorhodamine B Cell Survival Assays. A2780R or Ovcar8-IP cells were plated in 6 well plates and allowed to adhere overnight. The following day, cells were transfected with siQ, si419, or si494 as described above—A2780R cells using YTZ3-15 and Ovcar8-IP cells using MSNs. After 48-72 hours, cells were transferred to 96 well plates at 5,000 cells per well and allowed to adhere overnight. The following day cells were treated with cisplatin at a series of concentrations (cells not treated with cisplatin served as controls). After 72 hours, cells were fixed in 10% trichloroacetic acid for 1 hour at 4° C., washed with water, and dried. Cells were stained in 0.4% sulphorhodamine B (SRB) in 1% acetic acid for 15 minutes at room temperature and then washed 3-4 times with 1% acetic acid until no further color was present in the wash. Any stray SRB on the walls of the wells was removed, and stained cells were dried for 10 minutes. SRB was solubilized in 10 mM Tris base and color intensity was quantified by absorbance at 570 nm. Each condition was normalized to its own untreated control.

Ovcar8-IP tumors = assay: Ovcar8-IP intraperitoneal tumor model in NSG mice, MSN-siRNA with or without cisplatin; type: in vivo
Protocol: Animal Studies. The animal studies conducted in these experiments were done in accordance with a protocol approved by the Institutional Animal Care and Use Committee at the City of Hope Beckman Research Institute. A total of 48 female NOD.Cg-Prkdc^scidIl2rg^tm1Wj1/SzJ (NSG) mice (The Jackson Laboratory, Bar Harbor, ME) were used. Ten week old (on average) mice were administered an intraperitoneal injection (IP) of 2.5×10^6 Ovcar8-IP cells in 200 μl of RPMI media. For all studies, mice were placed into four groups: MSN-siQ, MSN-siQ+cisplatin, MSN-si419H, and MSN-si419H+cisplatin (n=4 or n=8). Previous reports show no cellular uptake without MSNs^14, thus a siRNA-only group was not added to this study.
Bioluminescent imaging of mice (using Xenogen IVIS 100 biophotonic imaging system, STTARR, Toronto, Ontario, Canada) commenced seven days after injection of tumor cells in order to ensure engraftment, and continued once a week for four weeks. Mice were given a 100 μl IP injection of 20 mg/ml D-Luciferin (PerkinElmer, Waltham, MA). Ten minutes after the D-luciferin injection, mice were anesthetized with isoflurane (2%-5%) and placed in the biophotonic imager, and images were taken within two minutes. An alfalfa-free version of the regular rodent diet (alfalfa-free CA-1) was administered to the siQ mice to prevent autofluorescence from the regular diet.
IP injections of MSN+siRNA (siQ fluorescently labeled with ALEXAFLUOR® 647 or si419H) were conducted one week after the inoculation of Ovcar8-IP cells and done once or twice per week for a total of four weeks. Mice received 105 μl of 500 ng/μl MSN complexed with 15 μl of 10 μM siRNA per week, divided into one full or two half doses (n=4 and n=8, respectively). This is equivalent to […] MSN/week. Weekly 3 mg/kg IP cisplatin injections were given starting two weeks after initial inoculation of cells.
At completion of the experiment, all animals were euthanized via CO2 asphyxiation. […]
Statistics. All in vivo data was analyzed using one-way ANOVA with correction for multiple comparisons, comparing all groups to MSN-siQ treatment group. […]

Akt = assay: Western blotting of total Akt during cisplatin exposure; type: cell-based, human
Protocol: (§1) Western blotting. Cells were pelleted and washed once with phosphate buffered saline (PBS), then lysed in RIPA buffer. Protein concentration was determined using a BCA assay (Thermo Fisher). Equal masses of protein were run on 4% stacking, 10% resolving polyacrylamide gels, and then transferred to PVDF membrane (GE Healthcare Bio-Sciences, Pittsburgh, PA) using the Trans-Blot SD Semi-Dry Transfer Cell (Bio-Rad). Membranes were blocked in dry milk dissolved in PBS with shaking for 1 hr at room temperature or overnight at 4° C. 3% BSA was used for blocking prior to select pAkt blots to reduce background signal. Primary and secondary antibodies were diluted as indicated below in 5% dry milk in PBS with 0.1-0.2% Tween-20. Incubation was performed at room temperature for one hr or overnight at 4° C. for primary, and at room temperature for one hr for secondary. Each antibody incubation was followed by five 5 min washes in PBS with 0.1% Tween-20. FemtoGlow HRP substrate (Michigan Diagnostics, Royal Oak, MI) and the Pxi4 chemiluminescent imager (Syngene, Frederick, MD) were used to acquire digital images. ECL 2 (Thermo Fisher) and Blue Devil Film (Genesee Scientific) were used to acquire film images. […] For select digital and film westerns, bands were quantified using GeneTools software from Syngene or Image Studio Lite from LiCor (Lincoln, NB), respectively, and normalized to β-Actin.

Phospho Akt (Ser473) = assay: Western blotting of Akt phosphorylated at Ser 473 during cisplatin exposure; type: cell-based, human; conditions: 24 hr
Protocol: as §1

TWIST1 = assay: Western blotting of TWIST1 during cisplatin exposure; type: cell-based, human; conditions: Ov8GFP-TWIST1 cells; 5 μM cisplatin over 24 hr
Protocol: as §1

N.N.[Cl][Pt][Cl] [cisplatin]
IC50 (A2780R cells): ~200 µM
reduction of metastasis incidence (number of disseminated masses) (Ovcar8-IP tumors; FIG. 21B): approximately 50%
proportion of mice developing ascites (Ovcar8-IP tumors; n=4 per group): 2/4
increase in Akt levels (Akt; Ov8GFP-TWIST1 cells, siQ, 5 μM cisplatin over 24 hr): 150%
total Akt levels (Akt; Ov8GFP-sh492 cells, cisplatin over 24 hr): relatively constant
increase in proportion of Akt phosphorylated at Ser 473 (Phospho Akt (Ser473); Ov8GFP-TWIST1 cells, siQ, 5 μM cisplatin, normalized to total Akt): 128%
reduction in phosphorylated Akt (Phospho Akt (Ser473); Ov8GFP-sh492 cells, cisplatin): 63%
increase in TWIST1 expression (TWIST1): up to 2.3 fold
